From PubChem BioAssay (NCI)
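Growth conditions: 96-well plates. Treatment: test compound, 48 hours, 5 concentrations. Analysis: linear interpolation between bracketing concentrations; unreached endpoints set to highest concentration. Definition used: TGI = concentration required for complete inhibition of growth.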

Legend:
Experiment in all cases: DTP human tumour cell line panel, 48 h
U251 CNS = tested on: U251 CNS
EKVX NSCLC = tested on: EKVX NSCLC
SN12C renal = tested on: SN12C renal
NCI/ADR-RES ovarian = tested on: NCI/ADR-RES ovarian
LOX IMVI melanoma = tested on: LOX IMVI melanoma
IGROV1 ovarian = tested on: IGROV1 ovarian
SF-539 CNS = tested on: SF-539 CNS
MALME-3M melanoma = tested on: MALME-3M melanoma
MDA-MB-231 breast = tested on: MDA-MB-231 breast
HOP-62 NSCLC = tested on: HOP-62 NSCLC
MDA-MB-435 = tested on: MDA-MB-435
HCT-15 colon = tested on: HCT-15 colon
HCC-2998 colon = tested on: HCC-2998 colon
HCT-116 colon = tested on: HCT-116 colon
T-47D breast = tested on: T-47D breast
BT-549 breast = tested on: BT-549 breast
COLO 205 colon = tested on: COLO 205 colon
KM12 colon = tested on: KM12 colon
UACC-62 melanoma = tested on: UACC-62 melanoma
K-562 leukemia = tested on: K-562 leukemia
786-0 renal = tested on: 786-0 renal
NCI-H23 lung = tested on: NCI-H23 lung
SNB-75 CNS = tested on: SNB-75 CNS
OVCAR-4 ovarian = tested on: OVCAR-4 ovarian
HT29 colon = tested on: HT29 colon
OVCAR-5 ovarian = tested on: OVCAR-5 ovarian
HL-60(TB) leukemia = tested on: HL-60(TB) leukemia
RPMI-8226 leukemia = tested on: RPMI-8226 leukemia
TK-10 renal = tested on: TK-10 renal
SF-268 CNS = tested on: SF-268 CNS
ACHN renal = tested on: ACHN renal
M14 melanoma = tested on: M14 melanoma
CAKI-1 renal = tested on: CAKI-1 renal
SNB-19 CNS = tested on: SNB-19 CNS
PC-3 prostate = tested on: PC-3 prostate
OVCAR-8 ovarian = tested on: OVCAR-8 ovarian
A549 NSCLC = tested on: A549 NSCLC
SR leukemia = tested on: SR leukemia
NCI-H460 lung = tested on: NCI-H460 lung
OVCAR-3 ovarian = tested on: OVCAR-3 ovarian
SK-OV-3 ovarian = tested on: SK-OV-3 ovarian
RXF 393 renal = tested on: RXF 393 renal
NCI-H522 lung = tested on: NCI-H522 lung
SK-MEL-5 melanoma = tested on: SK-MEL-5 melanoma
SW-620 colon = tested on: SW-620 colon
HS 578T breast = tested on: HS 578T breast
UO-31 renal = tested on: UO-31 renal
SK-MEL-28 melanoma = tested on: SK-MEL-28 melanoma
MCF7 breast = tested on: MCF7 breast
MDA-N = tested on: MDA-N
CCRF-CEM leukemia = tested on: CCRF-CEM leukemia
MOLT-4 leukemia = tested on: MOLT-4 leukemia
UACC-257 melanoma = tested on: UACC-257 melanoma
DU-145 prostate = tested on: DU-145 prostate
SK-MEL-2 melanoma = tested on: SK-MEL-2 melanoma
NCI-H226 lung = tested on: NCI-H226 lung
SF-295 CNS = tested on: SF-295 CNS
A498 renal = tested on: A498 renal
HOP-92 NSCLC = tested on: HOP-92 NSCLC

For `CC1=C(C(=O)OCCc2ccc([N+](=O)[O-])cc2)C(c2ccccc2[N+](=O)[O-])C(C(=O)OC(C)C)=C(C)N1` (stereo not drawn), the TGI (U251 CNS) was greater than 100 µM, the TGI (EKVX NSCLC) was 39.2 µM and the TGI (SN12C renal) was greater than 100 µM. The TGI (NCI/ADR-RES ovarian) was 20 µM, the TGI (LOX IMVI melanoma) was greater than 100 µM and the TGI (IGROV1 ovarian) was greater than 100 µM. It also gave a TGI (SF-539 CNS) greater than 100 µM, a TGI (MALME-3M melanoma) greater than 100 µM and a TGI (MDA-MB-231 breast) greater than 100 µM. It also gave a TGI (HOP-62 NSCLC) greater than 100 µM, a TGI (MDA-MB-435) greater than 100 µM and a TGI (HCT-15 colon) greater than 100 µM. For the same compound, the TGI (HCC-2998 colon) was greater than 100 µM, the TGI (HCT-116 colon) was greater than 100 µM and the TGI (T-47D breast) was greater than 100 µM. The TGI (BT-549 breast) was 71.2 µM, the TGI (COLO 205 colon) was greater than 100 µM and the TGI (KM12 colon) was greater than 100 µM. It also gave a TGI (UACC-62 melanoma) of 58.4 µM, a TGI (K-562 leukemia) greater than 100 µM and a TGI (786-0 renal) of 17.9 µM. For the same compound, the TGI (NCI-H23 lung) was greater than 100 µM, the TGI (SNB-75 CNS) was greater than 100 µM and the TGI (OVCAR-4 ovarian) was greater than 100 µM. It also gave a TGI (HT29 colon) greater than 100 µM, a TGI (OVCAR-5 ovarian) greater than 100 µM and a TGI (HL-60(TB) leukemia) of 8.48 µM. For the same compound, the TGI (RPMI-8226 leukemia) was greater than 100 µM, the TGI (TK-10 renal) was greater than 100 µM and the TGI (SF-268 CNS) was greater than 100 µM. For the same compound, the TGI (ACHN renal) was greater than 100 µM, the TGI (M14 melanoma) was 36.7 µM and the TGI (CAKI-1 renal) was greater than 100 µM. The TGI (SNB-19 CNS) was greater than 100 µM, the TGI (PC-3 prostate) was 18 µM and the TGI (OVCAR-8 ovarian) was greater than 100 µM. For the same compound, the TGI (A549 NSCLC) was greater than 100 µM, the TGI (SR leukemia) was greater than 100 µM and the TGI (NCI-H460 lung) was greater than 100 µM. The TGI (OVCAR-3 ovarian) was greater than 100 µM, the TGI (SK-OV-3 ovarian) was greater than 100 µM and the TGI (RXF 393 renal) was 35.9 µM. For the same compound, the TGI (NCI-H522 lung) was 7.82 µM, the TGI (SK-MEL-5 melanoma) was 5.14 µM and the TGI (SW-620 colon) was greater than 100 µM. It also gave a TGI (HS 578T breast) greater than 100 µM, a TGI (UO-31 renal) greater than 100 µM and a TGI (SK-MEL-28 melanoma) greater than 100 µM. It also gave a TGI (MCF7 breast) greater than 100 µM, a TGI (MDA-N) greater than 100 µM and a TGI (CCRF-CEM leukemia) of 23.2 µM. For the same compound, the TGI (MOLT-4 leukemia) was 9.93 µM, the TGI (UACC-257 melanoma) was greater than 100 µM and the TGI (DU-145 prostate) was greater than 100 µM. The TGI (SK-MEL-2 melanoma) was 40.9 µM, the TGI (NCI-H226 lung) was 65.3 µM and the TGI (SF-295 CNS) was greater than 100 µM.

`CN(CCc1ccc(Cl)c(Cl)c1)[C@H]1CCCC[C@H]1N1CCCC1` was tested, and the TGI (U251 CNS) was greater than 100 µM, the TGI (EKVX NSCLC) was greater than 100 µM and the TGI (SN12C renal) was greater than 100 µM. The TGI (NCI/ADR-RES ovarian) was greater than 100 µM, the TGI (LOX IMVI melanoma) was greater than 100 µM and the TGI (IGROV1 ovarian) was greater than 100 µM. It also gave a TGI (MALME-3M melanoma) greater than 100 µM, a TGI (MDA-MB-231 breast) greater than 100 µM and a TGI (HOP-62 NSCLC) greater than 100 µM. For the same compound, the TGI (MDA-MB-435) was greater than 100 µM, the TGI (HCT-15 colon) was greater than 100 µM and the TGI (HCC-2998 colon) was greater than 100 µM. The TGI (HCT-116 colon) was greater than 100 µM, the TGI (T-47D breast) was greater than 100 µM and the TGI (BT-549 breast) was greater than 100 µM. For the same compound, the TGI (COLO 205 colon) was greater than 100 µM, the TGI (KM12 colon) was greater than 100 µM and the TGI (UACC-62 melanoma) was greater than 100 µM. It also gave a TGI (K-562 leukemia) greater than 100 µM, a TGI (A498 renal) greater than 100 µM and a TGI (786-0 renal) greater than 100 µM. It also gave a TGI (NCI-H23 lung) greater than 100 µM, a TGI (OVCAR-4 ovarian) greater than 100 µM and a TGI (HT29 colon) greater than 100 µM. It also gave a TGI (OVCAR-5 ovarian) greater than 100 µM, a TGI (HL-60(TB) leukemia) greater than 100 µM and a TGI (RPMI-8226 leukemia) greater than 100 µM. For the same compound, the TGI (TK-10 renal) was greater than 100 µM, the TGI (SF-268 CNS) was greater than 100 µM and the TGI (ACHN renal) was greater than 100 µM. For the same compound, the TGI (M14 melanoma) was greater than 100 µM, the TGI (CAKI-1 renal) was greater than 100 µM and the TGI (HOP-92 NSCLC) was greater than 100 µM. It also gave a TGI (SNB-19 CNS) greater than 100 µM, a TGI (PC-3 prostate) greater than 100 µM and a TGI (OVCAR-8 ovarian) greater than 100 µM. It also gave a TGI (A549 NSCLC) greater than 100 µM, a TGI (SR leukemia) greater than 100 µM and a TGI (OVCAR-3 ovarian) greater than 100 µM. For the same compound, the TGI (SK-OV-3 ovarian) was greater than 100 µM, the TGI (RXF 393 renal) was greater than 100 µM and the TGI (NCI-H522 lung) was greater than 100 µM. The TGI (SK-MEL-5 melanoma) was greater than 100 µM, the TGI (SW-620 colon) was greater than 100 µM and the TGI (HS 578T breast) was greater than 100 µM. For the same compound, the TGI (UO-31 renal) was greater than 100 µM, the TGI (SK-MEL-28 melanoma) was greater than 100 µM and the TGI (MCF7 breast) was greater than 100 µM. The TGI (MDA-N) was greater than 100 µM, the TGI (MOLT-4 leukemia) was greater than 100 µM and the TGI (UACC-257 melanoma) was greater than 100 µM. For the same compound, the TGI (DU-145 prostate) was greater than 100 µM, the TGI (SK-MEL-2 melanoma) was greater than 100 µM and the TGI (NCI-H226 lung) was greater than 100 µM. For the same compound, the TGI (SF-295 CNS) was greater than 100 µM.

Work on `CCc1nnc(-n2c(C)nc3cc(Cl)ccc3c2=O)s1` yielded a TGI (U251 CNS) greater than 100 µM, a TGI (EKVX NSCLC) greater than 100 µM and a TGI (SN12C renal) greater than 100 µM. For the same compound, the TGI (NCI/ADR-RES ovarian) was greater than 100 µM, the TGI (LOX IMVI melanoma) was greater than 100 µM and the TGI (IGROV1 ovarian) was greater than 100 µM. The TGI (MALME-3M melanoma) was 93.1 µM, the TGI (MDA-MB-231 breast) was greater than 100 µM and the TGI (HOP-62 NSCLC) was greater than 100 µM. It also gave a TGI (MDA-MB-435) greater than 100 µM, a TGI (HCT-15 colon) greater than 100 µM and a TGI (HCC-2998 colon) greater than 100 µM. It also gave a TGI (HCT-116 colon) greater than 100 µM, a TGI (T-47D breast) greater than 100 µM and a TGI (BT-549 breast) greater than 100 µM. It also gave a TGI (COLO 205 colon) greater than 100 µM, a TGI (KM12 colon) greater than 100 µM and a TGI (UACC-62 melanoma) of 61.7 µM. The TGI (K-562 leukemia) was greater than 100 µM, the TGI (A498 renal) was greater than 100 µM and the TGI (786-0 renal) was 81.6 µM. It also gave a TGI (NCI-H23 lung) greater than 100 µM, a TGI (SNB-75 CNS) of 92.8 µM and a TGI (OVCAR-4 ovarian) greater than 100 µM. The TGI (HT29 colon) was greater than 100 µM, the TGI (OVCAR-5 ovarian) was greater than 100 µM and the TGI (HL-60(TB) leukemia) was greater than 100 µM. The TGI (TK-10 renal) was greater than 100 µM, the TGI (SF-268 CNS) was greater than 100 µM and the TGI (ACHN renal) was greater than 100 µM. For the same compound, the TGI (M14 melanoma) was greater than 100 µM, the TGI (CAKI-1 renal) was greater than 100 µM and the TGI (HOP-92 NSCLC) was 99.2 µM. The TGI (SNB-19 CNS) was greater than 100 µM, the TGI (PC-3 prostate) was greater than 100 µM and the TGI (OVCAR-8 ovarian) was greater than 100 µM. For the same compound, the TGI (A549 NSCLC) was greater than 100 µM, the TGI (SR leukemia) was greater than 100 µM and the TGI (NCI-H460 lung) was greater than 100 µM. For the same compound, the TGI (OVCAR-3 ovarian) was 43 µM, the TGI (SK-OV-3 ovarian) was greater than 100 µM and the TGI (RXF 393 renal) was greater than 100 µM. For the same compound, the TGI (NCI-H522 lung) was 75.4 µM, the TGI (SK-MEL-5 melanoma) was 65.9 µM and the TGI (SW-620 colon) was greater than 100 µM. It also gave a TGI (HS 578T breast) greater than 100 µM, a TGI (UO-31 renal) greater than 100 µM and a TGI (SK-MEL-28 melanoma) greater than 100 µM. The TGI (MCF7 breast) was greater than 100 µM, the TGI (MDA-N) was 49.1 µM and the TGI (CCRF-CEM leukemia) was 56.7 µM. The TGI (MOLT-4 leukemia) was greater than 100 µM, the TGI (UACC-257 melanoma) was greater than 100 µM and the TGI (DU-145 prostate) was greater than 100 µM. It also gave a TGI (NCI-H226 lung) greater than 100 µM and a TGI (SF-295 CNS) greater than 100 µM.
